{"source": "patent US20220218699A1", "about": "“New Pharmaceutical Formulation” (Hoffmann-La Roche Inc., priority 2019, published 2022)", "key": {"[1]": {"experiment": "Single-dose food effect study in dogs", "type": "in vivo", "details": "formulation that did not comprise at least one acidulant", "from_the_text": "Such food effects can cause difficulty during human testing of drugs as the fed or fasted condition of the patient can cause exposure or bioavailability of drugs to vary widely."}, "[2]": {"molecular_target": "anaplastic lymphoma kinase (ALK) (Homo sapiens, UniProt Q9UM73)", "sequence (Q9UM73 19-1620)": "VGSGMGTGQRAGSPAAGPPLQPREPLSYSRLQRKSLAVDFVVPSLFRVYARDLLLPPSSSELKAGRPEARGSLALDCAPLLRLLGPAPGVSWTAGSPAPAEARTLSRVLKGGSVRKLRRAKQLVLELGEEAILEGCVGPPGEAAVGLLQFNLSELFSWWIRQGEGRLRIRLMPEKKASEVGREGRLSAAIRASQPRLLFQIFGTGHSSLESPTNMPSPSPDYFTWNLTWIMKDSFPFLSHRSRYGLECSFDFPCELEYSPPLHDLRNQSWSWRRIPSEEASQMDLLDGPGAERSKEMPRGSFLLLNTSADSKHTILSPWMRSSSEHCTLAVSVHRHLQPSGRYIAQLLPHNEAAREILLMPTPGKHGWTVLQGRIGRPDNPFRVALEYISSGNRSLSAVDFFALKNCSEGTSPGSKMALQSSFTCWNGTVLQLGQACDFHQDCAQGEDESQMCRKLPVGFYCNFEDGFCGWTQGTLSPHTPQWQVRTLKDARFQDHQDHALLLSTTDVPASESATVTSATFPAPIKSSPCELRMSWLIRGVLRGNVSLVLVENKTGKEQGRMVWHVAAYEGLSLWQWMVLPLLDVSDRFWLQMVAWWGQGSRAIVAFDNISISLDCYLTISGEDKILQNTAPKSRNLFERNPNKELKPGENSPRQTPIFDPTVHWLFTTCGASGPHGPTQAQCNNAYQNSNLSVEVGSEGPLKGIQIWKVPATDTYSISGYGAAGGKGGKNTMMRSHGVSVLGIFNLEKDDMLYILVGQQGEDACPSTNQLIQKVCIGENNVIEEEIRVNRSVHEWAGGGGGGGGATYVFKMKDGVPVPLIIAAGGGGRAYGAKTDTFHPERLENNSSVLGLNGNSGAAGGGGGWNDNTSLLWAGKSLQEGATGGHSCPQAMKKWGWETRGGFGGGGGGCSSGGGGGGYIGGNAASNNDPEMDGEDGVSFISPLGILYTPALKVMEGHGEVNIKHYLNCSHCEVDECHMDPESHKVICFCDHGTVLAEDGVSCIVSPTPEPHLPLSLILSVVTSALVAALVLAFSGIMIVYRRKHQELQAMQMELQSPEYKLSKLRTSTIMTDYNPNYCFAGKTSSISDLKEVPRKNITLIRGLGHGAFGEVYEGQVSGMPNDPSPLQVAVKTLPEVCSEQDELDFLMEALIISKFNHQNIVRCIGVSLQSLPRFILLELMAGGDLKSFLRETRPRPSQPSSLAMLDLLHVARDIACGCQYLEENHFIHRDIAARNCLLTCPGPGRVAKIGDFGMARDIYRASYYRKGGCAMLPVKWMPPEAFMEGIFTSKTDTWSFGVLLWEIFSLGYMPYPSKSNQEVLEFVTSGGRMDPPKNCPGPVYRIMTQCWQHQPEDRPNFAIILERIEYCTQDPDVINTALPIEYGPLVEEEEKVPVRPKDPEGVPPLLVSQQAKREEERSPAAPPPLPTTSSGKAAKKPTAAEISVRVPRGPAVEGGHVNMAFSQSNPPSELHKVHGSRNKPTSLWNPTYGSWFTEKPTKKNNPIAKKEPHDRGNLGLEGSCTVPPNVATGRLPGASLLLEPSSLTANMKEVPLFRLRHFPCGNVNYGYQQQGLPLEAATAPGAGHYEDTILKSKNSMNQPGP", "details": "cited from earlier work"}, "TrkB": {"molecular_target": "TrkB (Homo sapiens, UniProt Q16620)", "sequence (Q16620 32-822)": "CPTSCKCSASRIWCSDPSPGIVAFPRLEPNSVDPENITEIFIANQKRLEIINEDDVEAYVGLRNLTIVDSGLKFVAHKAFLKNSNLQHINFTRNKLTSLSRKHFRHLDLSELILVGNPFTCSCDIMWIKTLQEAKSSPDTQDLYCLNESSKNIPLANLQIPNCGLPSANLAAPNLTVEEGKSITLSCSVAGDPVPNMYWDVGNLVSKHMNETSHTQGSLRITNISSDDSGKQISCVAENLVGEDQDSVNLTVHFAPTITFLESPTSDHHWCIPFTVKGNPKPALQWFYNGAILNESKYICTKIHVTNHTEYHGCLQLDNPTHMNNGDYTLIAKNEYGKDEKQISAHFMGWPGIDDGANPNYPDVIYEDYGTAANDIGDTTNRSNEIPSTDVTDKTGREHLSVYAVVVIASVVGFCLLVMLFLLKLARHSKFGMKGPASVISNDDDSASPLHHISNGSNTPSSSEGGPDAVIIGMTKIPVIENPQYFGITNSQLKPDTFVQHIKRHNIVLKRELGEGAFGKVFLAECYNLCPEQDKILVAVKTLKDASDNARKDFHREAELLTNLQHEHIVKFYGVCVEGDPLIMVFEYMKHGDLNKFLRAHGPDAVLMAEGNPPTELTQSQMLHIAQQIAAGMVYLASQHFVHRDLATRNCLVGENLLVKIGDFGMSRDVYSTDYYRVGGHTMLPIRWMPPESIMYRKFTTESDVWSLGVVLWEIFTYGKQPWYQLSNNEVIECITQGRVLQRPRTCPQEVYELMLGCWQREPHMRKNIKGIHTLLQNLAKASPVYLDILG", "details": "cited from earlier work"}, "TrkC": {"molecular_target": "TrkC (Homo sapiens, UniProt Q16288)", "sequence (Q16288 32-839)": "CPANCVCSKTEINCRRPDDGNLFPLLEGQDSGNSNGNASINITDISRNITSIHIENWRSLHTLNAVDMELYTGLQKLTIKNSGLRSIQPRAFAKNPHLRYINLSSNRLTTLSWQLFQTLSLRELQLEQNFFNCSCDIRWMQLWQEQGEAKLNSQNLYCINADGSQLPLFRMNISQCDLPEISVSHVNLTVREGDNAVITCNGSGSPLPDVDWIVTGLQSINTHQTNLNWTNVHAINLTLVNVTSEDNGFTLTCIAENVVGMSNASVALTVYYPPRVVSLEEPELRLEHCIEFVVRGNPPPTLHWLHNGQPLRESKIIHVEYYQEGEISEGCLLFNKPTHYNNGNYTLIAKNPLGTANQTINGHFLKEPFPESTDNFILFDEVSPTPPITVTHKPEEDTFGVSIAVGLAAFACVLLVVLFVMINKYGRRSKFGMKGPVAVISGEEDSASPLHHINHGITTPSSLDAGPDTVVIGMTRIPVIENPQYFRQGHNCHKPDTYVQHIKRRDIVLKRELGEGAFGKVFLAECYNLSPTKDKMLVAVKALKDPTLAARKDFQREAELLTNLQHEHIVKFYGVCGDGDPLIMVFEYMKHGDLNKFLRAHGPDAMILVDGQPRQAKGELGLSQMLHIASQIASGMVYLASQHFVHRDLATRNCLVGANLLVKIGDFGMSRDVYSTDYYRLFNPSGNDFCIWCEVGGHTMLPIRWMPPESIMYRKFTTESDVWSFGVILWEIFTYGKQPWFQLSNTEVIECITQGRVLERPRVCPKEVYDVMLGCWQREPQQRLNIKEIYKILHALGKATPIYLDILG", "details": "cited from earlier work"}}}
{"compound": "CN1CCN(c2ccc(C(=O)Nc3n[nH]c4ccc(Cc5cc(F)cc(F)c5)cc34)c(NC3CCOCC3)c2)CC1", "note": "[N-[5-(3,5-difluorobenzyl)-1H-indazol-3-yl]-4-(4-methyl-piperazin-1-yl)-2-(tetrahydro-pyran-4-ylamino)-benzamide]", "values": [{"measurement": "exposure levels under fed conditions compared to fasting conditions", "setting": "[1]", "value": "approximately 2 fold"}, {"measurement": "inhibition of tyrosine kinase ALK", "setting": "[2]", "value": "potent inhibitor"}, {"measurement": "inhibition of tyrosine kinase TrkB", "setting": "TrkB", "value": "potent inhibitor"}, {"measurement": "inhibition of tyrosine kinase TrkC", "setting": "TrkC", "value": "potent inhibitor"}]}
